Results taken from ChEMBL document CHEMBL1141750, “Phenanthroindolizidine alkaloids from the stems of Ficus septica” (2005).

How the values were obtained:
[1] = Cytotoxicity against human HONE1 at 10 uM after 3 days by MTS reduction assay; type: functional; details: HONE1, 72 h
NUGC = experiment: Cytotoxicity against human NUGC at 10 uM after 3 days by MTS reduction assay; type: functional; details: 72 h

Compound | inhibition at 10 µM [1] [%] | inhibition at 10 µM (NUGC) [%]
COc1cc2c3c(c4ccc(OC)c(OC)c4c2cc1OC)C[N@@+]1([O-])CCC[C@@H]1C3 | 92 | 94
COc1cc2c3c(c4ccc(OC)c(OC)c4c2cc1OC)C[C@H]1CCC[N@+]1([O-])C3 | 87 | 93
COc1cc2c3c(c4cc(OC)c(OC)cc4c2cc1OC)CN1CCC[C@@H]1C3 [TYLOPHORINE] | 80 | 85
